Data set [1] in a line: Solubility of the compound in phosphate buffered saline at pH 7.4 containing 1% DMSO after 18 hrs by UPLC-MS method. The settings on record: phosphate buffered saline with 1% DMSO. The format is physicochemical.
The nature of data set [2]: Dissociation constant, pKa of the compound for N15, 3'-amine group by dip probe absorption spectroscopy. The data set is classed as physicochemical.
Data set [3] in a line: Dissociation constant, pKa of the compound for N34 pyridine group by dip probe absorption spectroscopy. The data set is classed as physicochemical.
Data set [4] can be described thus: Efflux ratio of apparent permeability from basolateral to apical side to apical to basolateral side of human Caco2 cells. The data set is classed as ADME, cell-based. As to conditions: Caco-2.
Data set [5] in a line: Lipophilicity, log D of the compound by shake flask technique. The format is physicochemical. As to conditions: octanol/water.

Each structure is given as a SMILES string. Converted amounts (≈) assume the structure as drawn.

Here are results for eight molecules from ChEMBL document CHEMBL3232955, “Impact of stereospecific intramolecular hydrogen bonding on cell permeability and physicochemical properties” (J Med Chem, 2014).

For the molecule `C[C@@H](CO)N1C(=O)c2cccc(NC(=O)c3ccncc3)c2O[C@@H](CN(C)Cc2ccc(Oc3ccccc3)cc2)[C@@H]1C`, the kinetic solubility at 18 h in data set [1] was found to be 1 µM (≈ 0.581 µg/mL). For the same molecule, the pKa came out at 6.08 in data set [2] and 2.76 in data set [3]. In addition, in data set [4], the efflux ratio stood at 0.36.

For the molecule `C[C@@H]1[C@@H](CN(C)Cc2ccc(Oc3ccccc3)cc2)Oc2c(NC(=O)c3ccncc3)cccc2C(=O)N1[C@@H](C)CO`, in data set [1], the solubility (kinetic) at 18 h came out at 1 µM (≈ 0.581 µg/mL). The values for the pKa in data set [2] and in data set [3] were 6.18 and 2.77, respectively. Also, in data set [4], the efflux ratio was 0.1.

As to `C[C@H](CO)N1C(=O)c2cccc(NC(=O)c3ccncc3)c2O[C@@H](CN(C)Cc2ccc(Oc3ccccc3)cc2)[C@@H]1C`, the kinetic solubility at 18 h in data set [1] is 2 µM (≈ 1.16 µg/mL). For the same molecule, the values for the pKa in data set [2] and in data set [3] were 6.14 and 2.76, respectively. In addition, the efflux ratio in data set [4] was found to be 0.42.

Regarding `C[C@H](CO)N1C(=O)c2cccc(NC(=O)c3ccncc3)c2O[C@H](CN(C)Cc2ccc(Oc3ccccc3)cc2)[C@H]1C`, the solubility (kinetic) at 18 h in data set [1] came out at 1 µM (≈ 0.581 µg/mL). For the same molecule, the values for the pKa in data set [2] and in data set [3] were 6.08 and 2.77, respectively. For the same molecule, the efflux ratio in data set [4] came out at 0.31.

Take `C[C@H](CO)N1C(=O)c2cccc(NC(=O)c3ccncc3)c2O[C@@H](CN(C)Cc2ccc(Oc3ccccc3)cc2)[C@H]1C`: the kinetic solubility at 18 h in data set [1] was found to be 86 µM (≈ 49.9 µg/mL). The molecule further registered a logD in data set [5] of 3.4. For the same molecule, the pKa in data set [2] worked out at 7.07; in data set [3] it was 2.98. In addition, the efflux ratio in data set [4] came out at 0.47.

`C[C@@H](CO)N1C(=O)c2cccc(NC(=O)c3ccncc3)c2O[C@H](CN(C)Cc2ccc(Oc3ccccc3)cc2)[C@@H]1C`: the solubility (kinetic) at 18 h in data set [1] was found to be 93 µM (≈ 54 µg/mL). In data set [5], this molecule displayed a log distribution coefficient (logD) of 3.4. Besides, the pKa in data set [2] was found to be 7.08; in data set [3] it was 2.98. Also, the efflux ratio in data set [4] came to 0.41.

`C[C@H](CO)N1C(=O)c2cccc(NC(=O)c3ccncc3)c2O[C@H](CN(C)Cc2ccc(Oc3ccccc3)cc2)[C@@H]1C` registered a solubility (kinetic) at 18 h in data set [1] of 98 µM (≈ 56.9 µg/mL). For the same molecule, the logD in data set [5] is 3.4. In addition, the pKa in data set [2] stood at 7.16; in data set [3], 2.98. For the same molecule, in data set [4], the efflux ratio was found to be 0.36.

As to `C[C@@H]1[C@H](CN(C)Cc2ccc(Oc3ccccc3)cc2)Oc2c(NC(=O)c3ccncc3)cccc2C(=O)N1[C@@H](C)CO`, in data set [1], the kinetic solubility at 18 h amounted to 87 µM (≈ 50.5 µg/mL). In data set [5], this molecule showed a logD of 3.4. Besides, the pKa stood at 7.16 in data set [2] and 2.97 in data set [3]. Also, the efflux ratio in data set [4] was 0.48.
